{
  "source": "paper PMC2728841",
  "about": "“The Crystal Structure of the Escherichia coli Autoinducer-2 Processing Protein LsrF” (PLoS ONE, 2009)",
  "biological_target": "T1, LsrF (Escherichia coli, UniProt P76143)",
  "T1 construct": "His6-MBP fusion (pDEST-HisMBP) made in E. coli BL21, tag cut with TEV protease; decamer; model lacks residues 1-9, 177-180, 290-291",
  "T1 sequence (P76143 whole entry, the tested form may be a part)": "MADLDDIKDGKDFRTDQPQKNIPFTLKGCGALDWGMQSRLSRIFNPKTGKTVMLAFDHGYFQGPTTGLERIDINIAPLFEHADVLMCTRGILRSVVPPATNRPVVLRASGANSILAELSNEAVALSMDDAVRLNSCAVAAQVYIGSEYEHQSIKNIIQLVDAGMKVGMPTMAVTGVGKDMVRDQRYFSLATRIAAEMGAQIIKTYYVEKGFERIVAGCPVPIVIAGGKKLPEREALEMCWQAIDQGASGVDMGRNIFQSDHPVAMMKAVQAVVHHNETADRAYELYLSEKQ",
  "assay": "X-ray crystallography, crystal soak, […] Å",
  "format": "binding",
  "conditions": "100 mM ligand soak, 5 min, 100 mM Tris pH 8.0, 100 mM MgCl2, 27.5% PEG 400; aldolase active site; non-covalent model",
  "data": [
    {"smiles": "O=P(O)(O)OC[C@H]1OC(O)[C@H](O)[C@@H]1O", "note": "(stereo partly shown) [ribose-5-phosphate]", "values": [
      {"measurement": "X-ray crystallography, crystal soak, 2.5 Å", "value": "The final model included one ribose-5-phosphate per chain"}
    ]}
  ]
}
